The test system of this assay is MX-1 breast xenograft, nude mice, tumor weight T/C. Briefly: NCI In Vivo Anticancer Drug Screen. Data for tumor model Human Mammary Carcinoma MX-1 Xenograft (intrarenal inoculation) in NU/NU Swiss (nude) mice. As to conditions: endpoint: mean tumor weight change, higher = larger tumour. The essentials:
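Compound dosed to mice with transplantable tumor; vehicle group as control. Endpoint survival or tumour size, reported as T/C.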

The mark [1] stands for this setting: dose: 150.0 mg/kg/injection, schedule: Q04DX003 (sc), vehicle: Klucel (hydroxypropylcellulose) (HPC).
Where [2] appears, read: dose: 300.0 mg/kg/injection, schedule: Q04DX003 (sc), vehicle: Klucel (hydroxypropylcellulose) (HPC).
Setting [3] is: dose: 12.0 mg/kg/injection, schedule: Q04DX003 (sc), vehicle: Klucel (hydroxypropylcellulose) (HPC).
Setting [4] is: dose: 25.0 mg/kg/injection, schedule: Q04DX003 (sc), vehicle: saline.
Where [5] appears, read: dose: 50.0 mg/kg/injection, schedule: Q04DX003 (sc), vehicle: saline.
The mark [6] stands for this setting: dose: 100.0 mg/kg/injection, schedule: Q04DX003 (sc), vehicle: saline.
The mark [7] stands for this setting: dose: 300.0 mg/kg/injection, schedule: Q04DX003 (sc), vehicle: saline.
The mark [8] stands for this setting: dose: 1200.0 mg/kg/injection, schedule: Q04DX003 (sc), vehicle: saline.
[9] abbreviates: dose: 2400.0 mg/kg/injection, schedule: Q04DX003 (sc), vehicle: saline.
Where [10] appears, read: dose: 150.0 mg/kg/injection, schedule: Q04DX003 (sc), vehicle: suspension in saline.
Setting [11] is: dose: 600.0 mg/kg/injection, schedule: Q04DX003 (sc), vehicle: suspension in saline.

“And” between values parts separate entries of the source, which are not always exact repeats. Equal values may be shown once. Results filed as inconclusive are left out.

For `CN(C)N=Nc1cccc(C(N)=O)c1`, the T/C runs as follows: (dose: 25.0 mg/kg/injection, schedule: Q04DX003 (sc), vehicle: Klucel (hydroxypropylcellulose) (HPC)) 100 % of control; (dose: 50.0 mg/kg/injection, schedule: Q04DX003 (sc), vehicle: Klucel (hydroxypropylcellulose) (HPC)) 52 % of control and 59 % of control and 64 % of control; under setting [1], 4 % of control.
Regarding `CNC(=O)OCc1c(COC(=O)NC)c(-c2ccc(Cl)c(Cl)c2)n2c1Cc1ccccc1C2`, the T/C is, setting by setting: (dose: 300.0 mg/kg/injection, schedule: Q04DX003 (sc), vehicle: distilled water + Tween-80) 64 % of control; (dose: 600.0 mg/kg/injection, schedule: Q04DX003 (sc), vehicle: distilled water + Tween-80) 70 % of control; (dose: 1200.0 mg/kg/injection, schedule: Q04DX003 (sc), vehicle: distilled water + Tween-80) 103 % of control; (dose: 2400.0 mg/kg/injection, schedule: Q04DX003 (sc), vehicle: distilled water + Tween-80) 36 % of control.
On to `O=c1cnn(C2OC(CO)C(O)C2O)c(=O)[nH]1` (stereo not drawn), for which the T/C is 79 % of control (dose: 200.0 mg/kg/injection, schedule: Q01DX010 (sc), vehicle: saline) and 77 % of control (dose: 400.0 mg/kg/injection, schedule: Q01DX010 (sc), vehicle: saline).
For `O=C1NC(c2ccccc2)N=C2Oc3ccccc3C=C12` (stereo not drawn), the T/C is, setting by setting: (dose: 50.0 mg/kg/injection, schedule: Q01DX008 (sc), vehicle: saline with Tween-80) 57 % of control; (dose: 100.0 mg/kg/injection, schedule: Q01DX008 (sc), vehicle: saline with Tween-80) 71 % of control; (dose: 200.0 mg/kg/injection, schedule: Q01DX008 (sc), vehicle: saline with Tween-80) 56 % of control; (dose: 400.0 mg/kg/injection, schedule: Q01DX008 (sc), vehicle: saline with Tween-80) 80 % of control.
`Cc1cc(Nc2ccc3c(c2)OCO3)c2cc3c(cc2n1)OCO3`: the T/C under setting [2] is 61 % of control; the T/C (dose: 600.0 mg/kg/injection, schedule: Q04DX003 (sc), vehicle: Klucel (hydroxypropylcellulose) (HPC)) is 81 % of control; the T/C (dose: 1200.0 mg/kg/injection, schedule: Q04DX003 (sc), vehicle: Klucel (hydroxypropylcellulose) (HPC)) is 81 % of control; the T/C (dose: 2400.0 mg/kg/injection, schedule: Q04DX003 (sc), vehicle: Klucel (hydroxypropylcellulose) (HPC)) is 92 % of control.
In the case of `CC1CC(C)CC(C)C(O)/C(C#N)=C/C=C/CC(C2CCCC2C(=O)O)OC(=O)CC(O)C(C)C1` (stereo not drawn), the T/C is 87 % of control (dose: 6.0 mg/kg/injection, schedule: Q04DX003 (sc), vehicle: Klucel (hydroxypropylcellulose) (HPC)) and 79 % of control under setting [3].
`Oc1ccc(O)cc1`: the T/C is, setting by setting: under setting [4], 81 % of control; under setting [5], 71 % of control; under setting [6], 75 % of control.
`CCOC(=O)C(CC(C)C)NC(=O)C(Cc1ccc(N(CCCl)CCCl)cc1)NC(C)=O` (stereo not drawn): the T/C (dose: 37.5 mg/kg/injection, schedule: Q04DX003 (sc), vehicle: saline with Tween-80) was 50 % of control; the T/C (dose: 600.0 mg/kg/injection, schedule: Q04DX003 (sc), vehicle: saline with Tween-80) is -97 % of control and -96 % of control.
Consider `O=C1NC2(CCCCC2)C(=O)N1CCN(CCCl)CCCl`, for which the T/C (dose: 3.0 mg/kg/injection, schedule: Q01DX010 (sc), vehicle: saline) was 48 % of control.
As to `C[C@H](N)C(=O)N[C@@H]1[C@H]2C(=C(O)C[C@@H](O)[C@@H]2O)C(=O)O[C@@H]1C`, the T/C runs as follows: under setting [7], 81 % of control; (dose: 600.0 mg/kg/injection, schedule: Q04DX003 (sc), vehicle: saline) 67 % of control; under setting [8], 88 % of control; under setting [9], 99 % of control.
As to `C(=N/NC1=NCCN1)/c1c2ccccc2c(/C=N\NC2=NCCN2)c2ccccc12`, the T/C (dose: 75.0 mg/kg/injection, schedule: Q04DX003 (sc), vehicle: suspension in saline) is 11 % of control and 25 % of control; the T/C under setting [10] is 17 % of control and 18 % of control.
`CCC[CH2][Sn]1([CH2]CCC)[O]C2C(CO)OC(n3ccc(N)nc3=O)C2[O]1` (stereo not drawn): the T/C reads like this: under setting [3], 55 % of control; (dose: 24.0 mg/kg/injection, schedule: Q04DX003 (sc), vehicle: Klucel (hydroxypropylcellulose) (HPC)) 59 % of control.
In the case of `NC(=O)SCC(N)C(=O)O` (stereo not drawn), the T/C (dose: 225.0 mg/kg/injection, schedule: Q04DX003 (sc), vehicle: suspension in saline) is 73 % of control; the T/C (dose: 400.0 mg/kg/injection, schedule: Q04DX003 (sc), vehicle: suspension in saline) is 62 % of control; the T/C (dose: 450.0 mg/kg/injection, schedule: Q04DX003 (sc), vehicle: suspension in saline) is 49 % of control; the T/C under setting [11] is 57 % of control.
Turning to `CCCCOC(=O)/C=C(\Br)C(=O)OCCCC`, the T/C by setting is: (dose: 50.0 mg/kg/injection, schedule: Q01DX010 (sc), vehicle: saline with Tween-80) 102 % of control; (dose: 100.0 mg/kg/injection, schedule: Q01DX010 (sc), vehicle: saline with Tween-80) 68 % of control; (dose: 200.0 mg/kg/injection, schedule: Q01DX010 (sc), vehicle: saline with Tween-80) 191 % of control; (dose: 400.0 mg/kg/injection, schedule: Q01DX010 (sc), vehicle: saline with Tween-80) 205 % of control.
In the case of `Cc1cn(C2CC(O)C(CO)O2)c(=O)[nH]c1=O` (stereo not drawn), the T/C (dose: 800.0 mg/kg/injection, schedule: Q04DX003 (sc), vehicle: saline) is 105 % of control; the T/C (dose: 1600.0 mg/kg/injection, schedule: Q04DX003 (sc), vehicle: saline) was 89 % of control; the T/C (dose: 3200.0 mg/kg/injection, schedule: Q04DX003 (sc), vehicle: saline) was 50 % of control; the T/C (dose: 6400.0 mg/kg/injection, schedule: Q04DX003 (sc), vehicle: saline) was 62 % of control.
Take `Cc1cn(C2CC(F)C(CO)O2)c(=O)[nH]c1=O` (stereo not drawn): the T/C under setting [10] is 56 % of control; the T/C (dose: 300.0 mg/kg/injection, schedule: Q04DX003 (sc), vehicle: suspension in saline) was 105 % of control; the T/C under setting [11] is 111 % of control; the T/C (dose: 1200.0 mg/kg/injection, schedule: Q04DX003 (sc), vehicle: suspension in saline) is 93 % of control.
Regarding `C[CH2][Ge]1([CH2]C)[CH2]CC2(CCN(CCCN(C)C)C2)C[CH2]1`, the T/C was 72 % of control (dose: 12.5 mg/kg/injection, schedule: Q04DX003 (sc), vehicle: saline); 92 % of control under setting [4]; 72 % of control under setting [5]; 85 % of control under setting [6].
Consider `CCN(C)N=Nc1ccc(C(N)=O)cc1`, for which the T/C reads like this: under setting [1], 38 % of control; under setting [2], 21 % of control.
Turning to `CC(=O)CC(C)=O.CC(=O)CC(C)=O.O=N[O-].O=N[O-].[Co]`, the T/C is, setting by setting: (dose: 75.0 mg/kg/injection, schedule: Q04DX003 (sc), vehicle: saline with Tween-80) 72 % of control; (dose: 150.0 mg/kg/injection, schedule: Q04DX003 (sc), vehicle: saline with Tween-80) 67 % of control.
As for `O=C(O)C(O)C(O)C1[O][Sb][O]C1C(=O)O` (stereo not drawn), the T/C by setting is: (dose: 75.0 mg/kg/injection, schedule: Q04DX003 (sc), vehicle: saline) 91 % of control; (dose: 150.0 mg/kg/injection, schedule: Q04DX003 (sc), vehicle: saline) 99 % of control.
With `C[n+]1c(-c2cccc3ccccc23)c2cc(N)ccc2c2ccccc21`, the T/C is, setting by setting: (dose: 12.0 mg/kg/injection, schedule: Q04DX003 (sc), vehicle: saline) 103 % of control; (dose: 48.0 mg/kg/injection, schedule: Q04DX003 (sc), vehicle: saline) 92 % of control.
Consider `Cc1ccc(S(=O)(=O)N/N=C/C(=O)O)cc1`, for which the T/C runs as follows: (dose: 25.0 mg/kg/injection, schedule: Q01DX010 (sc), vehicle: Klucel (hydroxypropylcellulose) (HPC)) 90 % of control; (dose: 50.0 mg/kg/injection, schedule: Q01DX010 (sc), vehicle: Klucel (hydroxypropylcellulose) (HPC)) 103 % of control; (dose: 400.0 mg/kg/injection, schedule: Q01DX010 (sc), vehicle: Klucel (hydroxypropylcellulose) (HPC)) 58 % of control; (dose: 800.0 mg/kg/injection, schedule: Q01DX010 (sc), vehicle: Klucel (hydroxypropylcellulose) (HPC)) 71 % of control.
As for `OCCOCC(F)(F)F`, the T/C is 82 % of control under setting [7], 86 % of control under setting [8] and 49 % of control under setting [9].

Values taken from PubChem BioAssay AID296 (DTP/NCI, 2004).
